The kinase profiling compilation of Christmann-Franck et al. (2016)

Legend:
Assay in all cases: KINOMEscan competition binding
Conditions in all cases: compound 0.5 µM
GRK4 (human) = GRK4 (human) (UniProt P32298)
NEK6 (human) = NEK6 (human) (UniProt Q9HC98)
FER (human) = FER (human) (UniProt P16591)
PRKAA2 (human) = PRKAA2 (human) (UniProt P54646)
ERBB3 (human) = ERBB3 (human) (UniProt P21860)
[1] = tested on: PIK3CA (human), P42336 [E545A]
DAPK2 (human) = DAPK2 (human) (UniProt Q9UIK4)
CSK (human) = CSK (human) (UniProt P41240)
RIOK3 (human) = RIOK3 (human) (UniProt O14730)
EPHA8 (human) = EPHA8 (human) (UniProt P29322)
[2] = tested on: PIK3CA (human), P42336 [E542K]
MKNK1 (human) = MKNK1 (human) (UniProt Q9BUB5)
SNRK (human) = SNRK (human) (UniProt Q9NRH2)
MUSK (human) = MUSK (human) (UniProt O15146)
MAPK15 (human) = MAPK15 (human) (UniProt Q8TD08)
CASK (human) = CASK (human) (UniProt O14936)
CDK4 CCND1 (human) = CDK4 CCND1 (human) (UniProt P11802+P24385)
FGR (human) = FGR (human) (UniProt P09769)
BRSK1 (human) = BRSK1 (human) (UniProt Q8TDC3)
NEK2 (human) = NEK2 (human) (UniProt P51955)
RPS6KA2 KD2 (human) = RPS6KA2 KD2 (human) (UniProt Q15349)
STK36 (human) = STK36 (human) (UniProt Q9NRP7)
TAOK3 (human) = TAOK3 (human) (UniProt Q9H2K8)
TEK (human) = TEK (human) (UniProt Q02763)
IKBKB (human) = IKBKB (human) (UniProt O14920)
CHUK (human) = CHUK (human) (UniProt O15111)
PAK7 (human) = PAK7 (human) (UniProt Q9P286)
SBK1 (human) = SBK1 (human) (UniProt Q52WX2)
MAPK10 (human) = MAPK10 (human) (UniProt P53779)
MAPK12 (human) = MAPK12 (human) (UniProt P53778)
[3] = biological target: JAK1 JH2 pseudokinase (human) (UniProt P23458)
CAMKK2 (human) = CAMKK2 (human) (UniProt Q96RR4)
FGFR1 (human) = FGFR1 (human) (UniProt P11362)
IRAK4 (human) = IRAK4 (human) (UniProt Q9NWZ3)
DDR2 (human) = DDR2 (human) (UniProt Q16832)
LTK (human) = LTK (human) (UniProt P29376)
PDGFRB (human) = PDGFRB (human) (UniProt P09619)
CLK3 (human) = CLK3 (human) (UniProt P49761)
ICK (human) = ICK (human) (UniProt Q9UPZ9)
PRKG1 (human) = PRKG1 (human) (UniProt Q13976)
PTK2B (human) = PTK2B (human) (UniProt Q14289)
MINK1 (human) = MINK1 (human) (UniProt Q8N4C8)

Sequence of PRKAA2 (human) (P54646 whole entry, looked up): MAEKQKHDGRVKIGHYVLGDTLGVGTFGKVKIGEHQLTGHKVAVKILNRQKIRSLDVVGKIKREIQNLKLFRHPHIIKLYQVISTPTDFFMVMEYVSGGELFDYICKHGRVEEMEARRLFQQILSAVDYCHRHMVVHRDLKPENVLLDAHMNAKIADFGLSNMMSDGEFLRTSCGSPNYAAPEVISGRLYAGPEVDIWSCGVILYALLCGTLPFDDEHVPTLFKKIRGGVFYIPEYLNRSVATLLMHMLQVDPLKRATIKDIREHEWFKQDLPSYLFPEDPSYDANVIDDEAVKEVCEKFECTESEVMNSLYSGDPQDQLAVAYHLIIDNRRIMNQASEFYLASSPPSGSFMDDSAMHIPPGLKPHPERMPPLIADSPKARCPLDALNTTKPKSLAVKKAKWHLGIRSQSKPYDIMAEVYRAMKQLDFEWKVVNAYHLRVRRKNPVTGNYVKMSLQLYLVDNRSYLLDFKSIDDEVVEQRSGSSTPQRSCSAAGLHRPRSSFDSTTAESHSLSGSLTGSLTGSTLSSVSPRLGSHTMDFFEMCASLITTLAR
Sequence of DDR2 (human) (Q16832 whole entry, looked up): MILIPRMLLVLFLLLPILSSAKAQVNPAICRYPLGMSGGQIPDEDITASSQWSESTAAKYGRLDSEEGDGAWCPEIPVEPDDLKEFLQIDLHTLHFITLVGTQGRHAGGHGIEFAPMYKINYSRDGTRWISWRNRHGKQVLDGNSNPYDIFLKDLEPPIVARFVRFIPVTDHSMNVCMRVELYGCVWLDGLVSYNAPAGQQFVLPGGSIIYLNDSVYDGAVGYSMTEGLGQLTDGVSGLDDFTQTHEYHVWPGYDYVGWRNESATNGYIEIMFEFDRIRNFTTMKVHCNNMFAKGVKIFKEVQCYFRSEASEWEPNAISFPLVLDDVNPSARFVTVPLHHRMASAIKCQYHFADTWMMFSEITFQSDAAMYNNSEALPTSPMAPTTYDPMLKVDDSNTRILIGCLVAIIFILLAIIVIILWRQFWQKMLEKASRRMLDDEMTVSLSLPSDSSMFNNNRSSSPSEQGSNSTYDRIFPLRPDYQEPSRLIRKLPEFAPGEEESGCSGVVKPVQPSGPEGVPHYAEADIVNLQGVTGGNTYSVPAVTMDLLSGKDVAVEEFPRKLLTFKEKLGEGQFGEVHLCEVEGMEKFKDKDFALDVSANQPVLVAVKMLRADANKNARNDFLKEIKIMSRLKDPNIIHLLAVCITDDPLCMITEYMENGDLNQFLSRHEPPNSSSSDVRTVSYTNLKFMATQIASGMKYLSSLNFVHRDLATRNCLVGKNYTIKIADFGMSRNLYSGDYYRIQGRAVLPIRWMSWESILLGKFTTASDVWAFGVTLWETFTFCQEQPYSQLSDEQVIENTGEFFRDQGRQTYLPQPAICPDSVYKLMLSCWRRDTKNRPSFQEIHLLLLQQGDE
Sequence of NEK2 (human) (P51955 whole entry, looked up): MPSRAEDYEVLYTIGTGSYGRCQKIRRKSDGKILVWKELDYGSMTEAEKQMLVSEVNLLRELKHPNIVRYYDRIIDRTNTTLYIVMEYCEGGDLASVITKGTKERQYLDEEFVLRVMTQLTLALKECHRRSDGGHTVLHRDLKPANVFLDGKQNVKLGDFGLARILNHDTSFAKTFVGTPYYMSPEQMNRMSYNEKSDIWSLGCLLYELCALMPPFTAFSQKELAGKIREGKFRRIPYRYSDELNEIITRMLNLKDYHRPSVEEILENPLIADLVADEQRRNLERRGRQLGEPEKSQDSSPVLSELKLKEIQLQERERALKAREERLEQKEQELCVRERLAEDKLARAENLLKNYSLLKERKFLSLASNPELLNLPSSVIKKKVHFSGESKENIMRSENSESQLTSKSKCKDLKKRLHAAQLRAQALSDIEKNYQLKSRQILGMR
Sequence of CASK (human) (O14936 whole entry, looked up): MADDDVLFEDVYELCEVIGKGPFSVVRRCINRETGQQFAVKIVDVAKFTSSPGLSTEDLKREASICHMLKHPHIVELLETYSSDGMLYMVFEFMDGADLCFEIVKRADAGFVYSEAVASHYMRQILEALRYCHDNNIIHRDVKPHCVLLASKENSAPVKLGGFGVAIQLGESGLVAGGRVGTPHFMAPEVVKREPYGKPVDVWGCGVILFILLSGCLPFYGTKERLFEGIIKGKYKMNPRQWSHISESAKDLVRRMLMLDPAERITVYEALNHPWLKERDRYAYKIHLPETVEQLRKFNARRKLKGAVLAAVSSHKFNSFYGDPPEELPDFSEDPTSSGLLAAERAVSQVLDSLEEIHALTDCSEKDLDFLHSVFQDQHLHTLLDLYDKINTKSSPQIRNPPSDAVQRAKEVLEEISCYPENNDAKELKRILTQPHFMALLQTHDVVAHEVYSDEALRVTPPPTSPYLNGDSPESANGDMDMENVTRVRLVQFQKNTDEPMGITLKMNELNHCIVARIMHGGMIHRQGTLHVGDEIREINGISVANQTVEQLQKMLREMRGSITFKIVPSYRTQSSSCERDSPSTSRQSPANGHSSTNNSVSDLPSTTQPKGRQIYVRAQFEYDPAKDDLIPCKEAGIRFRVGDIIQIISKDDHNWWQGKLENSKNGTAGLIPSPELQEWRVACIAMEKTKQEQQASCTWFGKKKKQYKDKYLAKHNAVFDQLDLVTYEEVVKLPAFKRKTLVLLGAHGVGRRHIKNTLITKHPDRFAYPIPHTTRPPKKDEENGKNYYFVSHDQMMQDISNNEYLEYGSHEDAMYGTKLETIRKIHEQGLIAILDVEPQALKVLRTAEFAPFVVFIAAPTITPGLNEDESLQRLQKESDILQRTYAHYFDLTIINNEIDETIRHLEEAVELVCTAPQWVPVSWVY
Sequence of TEK (human) (Q02763 whole entry, looked up): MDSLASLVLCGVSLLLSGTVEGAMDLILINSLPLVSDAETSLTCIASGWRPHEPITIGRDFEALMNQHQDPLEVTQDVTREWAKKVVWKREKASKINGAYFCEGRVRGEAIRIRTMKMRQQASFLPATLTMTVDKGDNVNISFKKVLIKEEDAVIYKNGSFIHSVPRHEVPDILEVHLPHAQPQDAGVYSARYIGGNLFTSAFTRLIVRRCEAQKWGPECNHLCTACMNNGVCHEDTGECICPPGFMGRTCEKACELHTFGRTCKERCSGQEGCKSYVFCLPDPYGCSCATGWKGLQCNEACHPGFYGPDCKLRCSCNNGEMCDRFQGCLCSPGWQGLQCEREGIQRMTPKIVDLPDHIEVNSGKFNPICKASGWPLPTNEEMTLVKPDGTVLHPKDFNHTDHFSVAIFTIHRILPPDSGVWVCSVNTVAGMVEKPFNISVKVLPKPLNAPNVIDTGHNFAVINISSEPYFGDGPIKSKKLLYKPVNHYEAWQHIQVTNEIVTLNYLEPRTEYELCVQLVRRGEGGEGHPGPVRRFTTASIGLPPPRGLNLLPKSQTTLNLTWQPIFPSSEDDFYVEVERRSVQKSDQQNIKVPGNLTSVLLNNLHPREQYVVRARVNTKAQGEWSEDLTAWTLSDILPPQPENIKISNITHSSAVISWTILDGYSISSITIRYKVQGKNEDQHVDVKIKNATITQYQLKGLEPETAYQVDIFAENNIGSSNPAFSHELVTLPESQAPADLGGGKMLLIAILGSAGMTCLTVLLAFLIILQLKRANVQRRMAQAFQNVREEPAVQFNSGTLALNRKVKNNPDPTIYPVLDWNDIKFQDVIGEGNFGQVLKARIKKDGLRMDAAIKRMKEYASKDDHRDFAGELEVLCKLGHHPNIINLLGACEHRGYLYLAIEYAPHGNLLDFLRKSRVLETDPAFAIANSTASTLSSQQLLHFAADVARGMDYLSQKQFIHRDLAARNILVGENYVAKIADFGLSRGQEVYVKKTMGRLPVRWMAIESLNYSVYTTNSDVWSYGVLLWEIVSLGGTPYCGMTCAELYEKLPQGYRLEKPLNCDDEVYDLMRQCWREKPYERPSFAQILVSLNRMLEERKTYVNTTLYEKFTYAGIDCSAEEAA
Sequence of MAPK12 (human) (P53778 whole entry, looked up): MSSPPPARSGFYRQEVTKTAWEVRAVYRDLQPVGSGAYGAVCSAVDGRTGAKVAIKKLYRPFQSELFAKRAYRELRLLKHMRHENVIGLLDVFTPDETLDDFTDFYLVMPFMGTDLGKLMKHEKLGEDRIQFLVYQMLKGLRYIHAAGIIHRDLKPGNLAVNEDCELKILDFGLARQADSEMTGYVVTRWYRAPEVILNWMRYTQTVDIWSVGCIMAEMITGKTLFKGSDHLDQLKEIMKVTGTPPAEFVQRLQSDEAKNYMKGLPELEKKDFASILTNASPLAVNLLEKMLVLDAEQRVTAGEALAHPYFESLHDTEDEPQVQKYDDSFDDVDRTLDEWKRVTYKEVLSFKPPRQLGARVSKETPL
Sequence of IKBKB (human) (O14920 whole entry, looked up): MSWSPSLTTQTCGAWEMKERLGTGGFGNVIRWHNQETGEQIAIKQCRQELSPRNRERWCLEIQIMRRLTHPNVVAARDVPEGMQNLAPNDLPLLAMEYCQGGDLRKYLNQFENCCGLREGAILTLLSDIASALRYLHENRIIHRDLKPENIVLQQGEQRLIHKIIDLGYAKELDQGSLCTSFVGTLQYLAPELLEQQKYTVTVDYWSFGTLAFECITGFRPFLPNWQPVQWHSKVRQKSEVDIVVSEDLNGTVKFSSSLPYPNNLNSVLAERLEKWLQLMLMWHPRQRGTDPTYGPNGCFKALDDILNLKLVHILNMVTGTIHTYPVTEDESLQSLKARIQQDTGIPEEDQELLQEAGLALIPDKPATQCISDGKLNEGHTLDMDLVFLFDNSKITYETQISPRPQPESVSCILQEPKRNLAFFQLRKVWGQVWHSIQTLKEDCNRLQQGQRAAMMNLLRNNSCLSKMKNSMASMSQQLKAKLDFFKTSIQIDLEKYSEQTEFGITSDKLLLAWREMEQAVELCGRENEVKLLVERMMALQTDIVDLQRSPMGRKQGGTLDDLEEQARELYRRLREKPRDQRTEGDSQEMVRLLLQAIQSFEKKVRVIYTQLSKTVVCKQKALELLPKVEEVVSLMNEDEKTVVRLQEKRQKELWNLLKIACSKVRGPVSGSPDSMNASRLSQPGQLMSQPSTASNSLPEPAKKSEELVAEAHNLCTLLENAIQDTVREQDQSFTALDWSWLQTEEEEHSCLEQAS

Cn1c2ccccc2c2c3c(c4c5ccccc5n(CCC#N)c4c21)CNC3=O gave a kinase still bound, per cent of control (GRK4 (human)) of 3%, a kinase still bound, per cent of control (NEK6 (human)) of 100% and a kinase still bound, per cent of control (FER (human)) of 3.2%. The kinase still bound, per cent of control (PRKAA2 (human)) was 73%, the kinase still bound, per cent of control (ERBB3 (human)) was 94% and the kinase still bound, per cent of control [1] was 100%. The kinase still bound, per cent of control (DAPK2 (human)) was 61%, the kinase still bound, per cent of control (CSK (human)) was 100% and the kinase still bound, per cent of control (RIOK3 (human)) was 1.2%. For the same compound, the kinase still bound, per cent of control (EPHA8 (human)) was 90%, the kinase still bound, per cent of control [2] was 100% and the kinase still bound, per cent of control (MKNK1 (human)) was 86%. For the same compound, the kinase still bound, per cent of control (SNRK (human)) was 69%, the kinase still bound, per cent of control (MUSK (human)) was 100% and the kinase still bound, per cent of control (MAPK15 (human)) was 0.45%. It also gave a kinase still bound, per cent of control (CASK (human)) of 72%, a kinase still bound, per cent of control (CDK4 CCND1 (human)) of 57% and a kinase still bound, per cent of control (FGR (human)) of 84%. It also gave a kinase still bound, per cent of control (BRSK1 (human)) of 51%, a kinase still bound, per cent of control (NEK2 (human)) of 100% and a kinase still bound, per cent of control (RPS6KA2 KD2 (human)) of 100%. It also gave a kinase still bound, per cent of control (STK36 (human)) of 100%, a kinase still bound, per cent of control (TAOK3 (human)) of 12% and a kinase still bound, per cent of control (TEK (human)) of 99%. It also gave a kinase still bound, per cent of control (IKBKB (human)) of 50%, a kinase still bound, per cent of control (CHUK (human)) of 88% and a kinase still bound, per cent of control (PAK7 (human)) of 3.4%. It also gave a kinase still bound, per cent of control (SBK1 (human)) of 82%, a kinase still bound, per cent of control (MAPK10 (human)) of 20% and a kinase still bound, per cent of control (MAPK12 (human)) of 68%. It also gave a kinase still bound, per cent of control [3] of 75%, a kinase still bound, per cent of control (CAMKK2 (human)) of 1.6% and a kinase still bound, per cent of control (FGFR1 (human)) of 74%. It also gave a kinase still bound, per cent of control (IRAK4 (human)) of 0.2%, a kinase still bound, per cent of control (DDR2 (human)) of 100% and a kinase still bound, per cent of control (LTK (human)) of 4.2%. The kinase still bound, per cent of control (PDGFRB (human)) was 42%, the kinase still bound, per cent of control (CLK3 (human)) was 94% and the kinase still bound, per cent of control (ICK (human)) was 20%. It also gave a kinase still bound, per cent of control (PRKG1 (human)) of 67%, a kinase still bound, per cent of control (PTK2B (human)) of 19% and a kinase still bound, per cent of control (MINK1 (human)) of 1%.
